The values that follow come from ChEMBL document CHEMBL4725372, “Rational Design of Suprastat: A Novel Selective Histone Deacetylase 6 Inhibitor with the Ability to Potentiate Immunotherapy in Melanoma Models” (J Med Chem, 2020).

Data set [1] can be described thus: Half life in human plasma at 10 uM by LC-MS/MS analysis. Type of data set: ADME, cell-free.
The test system of data set [2] is SM1. As to the kind of experiment: Potentiation of antitumor immune response in C57BL/6 mouse harboring mouse SM1 cells assessed as decrease in tumor burden at 25 mg/kg, ip dosed 5 days per week before starting 15 mg/kg, ip anti-PD1 immune checkpoint blockade therapy measured on day 20. Type of data set: functional, organism-based. Particulars: time 20.0 day.
Data set [3] is described as follows: Half life in rat liver microsome at 10 uM by LC-MS/MS analysis. Type of data set: ADME. The note with it: liver microsomes.
Data set [4] addresses T1, Protein deacetylase HDAC6 (Homo sapiens) (UniProt Q9UBN7).
T1 sequence (whole entry): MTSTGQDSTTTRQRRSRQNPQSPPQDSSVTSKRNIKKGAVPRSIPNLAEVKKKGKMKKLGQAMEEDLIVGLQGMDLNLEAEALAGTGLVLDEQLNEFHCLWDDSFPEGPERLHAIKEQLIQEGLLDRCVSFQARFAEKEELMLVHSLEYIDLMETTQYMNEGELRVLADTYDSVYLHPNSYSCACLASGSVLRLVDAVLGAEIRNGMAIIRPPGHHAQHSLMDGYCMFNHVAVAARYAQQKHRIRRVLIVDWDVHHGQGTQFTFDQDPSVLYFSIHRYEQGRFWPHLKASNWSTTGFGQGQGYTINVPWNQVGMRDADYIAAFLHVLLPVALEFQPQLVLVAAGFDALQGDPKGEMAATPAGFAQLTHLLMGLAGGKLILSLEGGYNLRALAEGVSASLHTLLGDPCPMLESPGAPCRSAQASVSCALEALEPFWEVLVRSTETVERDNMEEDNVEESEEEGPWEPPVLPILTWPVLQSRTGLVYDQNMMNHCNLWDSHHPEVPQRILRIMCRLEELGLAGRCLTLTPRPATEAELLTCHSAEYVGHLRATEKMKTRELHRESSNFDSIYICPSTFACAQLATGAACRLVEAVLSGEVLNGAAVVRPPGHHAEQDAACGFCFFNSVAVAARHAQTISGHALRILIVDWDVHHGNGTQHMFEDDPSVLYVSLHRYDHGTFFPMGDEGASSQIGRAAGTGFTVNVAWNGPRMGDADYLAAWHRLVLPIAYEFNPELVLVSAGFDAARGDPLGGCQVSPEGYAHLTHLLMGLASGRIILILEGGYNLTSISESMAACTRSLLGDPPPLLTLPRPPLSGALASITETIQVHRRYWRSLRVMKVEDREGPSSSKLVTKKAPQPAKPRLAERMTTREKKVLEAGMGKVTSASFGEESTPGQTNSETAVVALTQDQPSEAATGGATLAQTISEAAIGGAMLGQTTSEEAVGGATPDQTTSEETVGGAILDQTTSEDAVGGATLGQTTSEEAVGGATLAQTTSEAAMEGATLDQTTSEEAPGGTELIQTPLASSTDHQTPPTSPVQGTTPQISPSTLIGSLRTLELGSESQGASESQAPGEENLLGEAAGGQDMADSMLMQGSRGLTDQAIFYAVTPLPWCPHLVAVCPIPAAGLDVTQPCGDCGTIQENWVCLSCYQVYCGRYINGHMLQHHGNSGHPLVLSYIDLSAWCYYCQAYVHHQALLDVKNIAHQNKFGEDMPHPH
Briefly: Inhibition of human HDAC6 in human WM164 cells increase in acetylated alpha-tubulin levels at 0.1 to 10 uM by immunoblot analysis. Particulars: dose microM 0.1-10. Type of data set: cell-based.

The subject of data set [5] is SM1. As to the kind of experiment: Potentiation of antitumor immune response in C57BL/6 mouse harboring mouse SM1 cells assessed as decrease in tumor burden at 25 mg/kg, ip dosed 5 days per week before starting 15 mg/kg, ip anti-PD1 immune checkpoint blockade therapy measured on day 14. Type of data set: functional, organism-based. The note with it: time 14.0 day.
In data set [6] the target is T1, Protein deacetylase HDAC6 (Homo sapiens). Briefly: Inhibition of human HDAC6 in human WM164 cells assessed as decrease in STAT3 Y705 phosphorylation at 5 uM pre-incubated before IL6 stimulation for 20 mins by immunoblot analysis. Type of data set: cell-based.
The nature of data set [7]: Half life in SGF by LC-MS/MS analysis. Type of data set: ADME.
A short description of data set [8]: Protein binding in human plasma at 10 uM incubated for 1 hr by LC-MS/MS analysis. Type of data set: ADME, cell-free. The note with it: read-out: PPB (converted).
Data set [9] deals with Histone deacetylase (Homo sapiens) (UniProt Q13547+O15379+Q9UBN7+Q92769+Q9UQL6+Q8WUI4+Q9BY41+Q96DB2+P56524+Q9UKV0+Q969S8). As to the kind of experiment: Inhibition of human HDAC in human WM164 cells increase in acetylated histone H3 levels at 0.1 to 10 uM by immunoblot analysis. Type of data set: cell-based. The note with it: dose microM 0.1-10.
Data set [10] can be described thus: Half life in PBS by LC-MS/MS analysis. Type of data set: physicochemical.
The target of data set [11] is Histone deacetylase 1 (Homo sapiens, UniProt Q13547).
Description: Inhibition of HDAC1 (unknown origin)
Data set [12] is filed under the species Homo sapiens. Briefly: Selectivity index, ratio of IC50 for HDAC1 (unknown origin) to HDAC6 (unknown origin).
Data set [13] addresses T2, Protein deacetylase HDAC6 (Homo sapiens, UniProt Q9UBN7).
T2 sequence (Q9UBN7 whole entry): T1 sequence (whole entry)
Description: Inhibition of HDAC6 (unknown origin)

Data set [14] relates to HEK293. Briefly: Selectivity index, ratio of IC50 for human HDAC3 expressed in HEK293/T17 cells (unknown origin) to human HDAC6 expressed in HEK293/T17 cells. Type of data set: cell-based.
Data set [15] deals with HEK293. As to the kind of experiment: Selectivity index, ratio of IC50 for human HDAC5 expressed in HEK293/T17 cells (unknown origin) to human HDAC6 expressed in HEK293/T17 cells. Type of data set: cell-based.
The target in data set [16] is T3, Histone deacetylase 11 (Homo sapiens, UniProt Q96DB2).
T3 sequence (Q96DB2 whole entry): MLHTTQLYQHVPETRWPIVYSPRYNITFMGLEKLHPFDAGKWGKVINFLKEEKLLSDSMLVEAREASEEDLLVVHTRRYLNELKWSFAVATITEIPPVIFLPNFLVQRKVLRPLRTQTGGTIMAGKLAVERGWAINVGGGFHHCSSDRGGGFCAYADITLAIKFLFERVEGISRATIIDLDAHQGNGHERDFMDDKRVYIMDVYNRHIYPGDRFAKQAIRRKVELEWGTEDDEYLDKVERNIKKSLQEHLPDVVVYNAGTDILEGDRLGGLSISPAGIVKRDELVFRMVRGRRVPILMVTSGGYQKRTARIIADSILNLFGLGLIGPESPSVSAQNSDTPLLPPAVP
As to the kind of experiment: Inhibition of human HDAC11 expressed in HEK293/T17 cells pre-incubated for 10 mins before […] addition and measured after 30 mins by fluorescence-based assay. Type of data set: cell-based.

In data set [17] the test system is HEK293. As to the kind of experiment: Selectivity index, ratio of IC50 for human HDAC7 expressed in HEK293/T17 cells (unknown origin) to human HDAC6 expressed in HEK293/T17 cells. Type of data set: cell-based.
In data set [18] the test system is HEK293. Briefly: Selectivity index, ratio of IC50 for human HDAC8 expressed in HEK293/T17 cells (unknown origin) to human HDAC6 expressed in HEK293/T17 cells. Type of data set: cell-based.
The test system of data set [19] is HEK293. Briefly: Selectivity index, ratio of IC50 for human HDAC2 expressed in HEK293/T17 cells (unknown origin) to human HDAC6 expressed in HEK293/T17 cells. Type of data set: cell-based.
The test system of data set [20] is HEK293. As to the kind of experiment: Selectivity index, ratio of IC50 for human HDAC1 expressed in HEK293/T17 cells (unknown origin) to human HDAC6 expressed in HEK293/T17 cells. Type of data set: cell-based.
Data set [21] relates to HEK293. As to the kind of experiment: Selectivity index, ratio of IC50 for human HDAC9 expressed in HEK293/T17 cells (unknown origin) to human HDAC6 expressed in HEK293/T17 cells. Type of data set: cell-based.
Data set [22] has as its system HEK293. As to the kind of experiment: Selectivity index, ratio of IC50 for human HDAC4 expressed in HEK293/T17 cells (unknown origin) to human HDAC6 expressed in HEK293/T17 cells. Type of data set: cell-based.
Data set [23] deals with HEK293. As to the kind of experiment: Selectivity index, ratio of IC50 for human HDAC6 expressed in HEK293/T17 cells (unknown origin) to human HDAC6 expressed in HEK293/T17 cells. Type of data set: cell-based.
Data set [24] has as its system SM1. Briefly: Cytotoxicity in mouse SM1 cells assessed as reduction in cell viability up to 25 uM. Type of data set: functional, cell-based. Particulars: dose microM <=25.

SMILES strings stand for the structures. pIC50: −log10 of the molar value. Calls of active or inactive are those of the source. The calls are words filed in the database; no cut-off is given here.

Chain of Histone deacetylase 1 (Q13547 whole entry): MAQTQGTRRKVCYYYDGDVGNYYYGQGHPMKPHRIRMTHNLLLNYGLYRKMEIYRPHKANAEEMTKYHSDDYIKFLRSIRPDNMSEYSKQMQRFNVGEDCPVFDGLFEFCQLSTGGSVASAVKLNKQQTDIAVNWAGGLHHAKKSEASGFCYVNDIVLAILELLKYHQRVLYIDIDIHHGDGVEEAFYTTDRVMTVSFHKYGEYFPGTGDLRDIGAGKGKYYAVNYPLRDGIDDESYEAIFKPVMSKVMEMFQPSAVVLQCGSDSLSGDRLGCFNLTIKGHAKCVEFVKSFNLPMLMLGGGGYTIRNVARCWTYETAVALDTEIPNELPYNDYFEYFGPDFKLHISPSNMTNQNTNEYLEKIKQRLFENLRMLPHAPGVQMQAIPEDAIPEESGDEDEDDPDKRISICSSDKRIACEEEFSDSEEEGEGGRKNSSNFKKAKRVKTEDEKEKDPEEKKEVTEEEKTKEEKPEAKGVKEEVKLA

Turning to `CCCCN(Cc1ccc(C(=O)NO)cc1)C(=O)Nc1ccccc1` [NEXTURASTAT A], the half-life at 10 µM was over 300 min in data set [1] and 423 min in data set [3]. Besides, in [2], the result was Active. In data set [4], the inhibition result is “Dose-dependent effect”. Also, the TGI result in data set [5] is “Active”. Besides, the inhibition result in data set [6] and in data set [9] was “Active” throughout. In addition, the half-life was over 300 min in data set [7] and over 1440 min in data set [10]. Also, in data set [8], the fraction unbound at 1 h, 10 µM is 0.11.
In the case of `C[C@H](NC(=O)[C@H](CC(=O)NC(C)(C)C)NC(=O)c1ccc(C(=O)NO)cc1)C(=O)NCc1ccccc1`, the pIC50 in data set [11] was 5.16; in data set [13], 6.57. Also, in [12], the Ratio IC50 was 26.
Take `CCCCN(Cc1ccc(C(=O)NO)cc1)C(=O)Nc1ccc(CN)cc1`: the Ratio IC50 was 492 in data set [14]; 11200 in [15]; 10000 in [17]; 682 in [18]; 312 in data set [19]; 89 in [20]. For the same compound, the figures for the Ratio IC50 in data set [21], in data set [22] and in data set [23] were 19200, 25700 and 1, respectively. For the same compound, the half-life at 10 µM in [1] is over 300 min; in data set [3], 173 min. Besides, the inhibition result in data set [4] was “Dose-dependent effect”. The same compound gave a pIC50 in data set [16] of under 4.30. The half-life is over 300 min in data set [7] and over 1440 min in data set [10]. In [8], the fraction unbound at 1 h, 10 µM is 0.53. In addition, the inhibition entry in [9] is “Active”.
With `O=C(NO)c1ccc(CN(CCCCO)C(=O)Nc2ccccc2)cc1`, the Ratio IC50 in [14] was 1160; in data set [15], 18300; in data set [17], 3870; in data set [18] it was 956; in [19] it was 536; in data set [20], 296. Also, the Ratio IC50 in [21] came to 59500; in data set [22], 27900; in data set [23], 1. Moreover, the half-life at 10 µM in data set [1] was over 300 min; in data set [3], 198 min. In addition, the inhibition entry in data set [4] is “Dose-dependent effect”. In addition, the pIC50 in data set [16] was under 4.30. For the same compound, the outcome in data set [24] was inactive. Also, the results for the half-life in data set [7] and in data set [10] were over 300 min and over 1440 min, respectively. Also, in data set [8], the fraction unbound at 1 h, 10 µM was 0.52. For the same compound, the inhibition result in [9] is “Active”.
Consider `O=C(NO)c1ccc(CN(CCCO)C(=O)Cc2ccccc2)cc1`, for which the pIC50 in [11] was 5.95; in data set [13] it was 7.51. In addition, the Ratio IC50 in [12] is 36.
Consider `O=C(NO)c1cnc(NC2(c3ccccc3)CCC(F)(F)CC2)nc1`, for which the Ratio IC50 in data set [12] was determined as 260.
